Legend:
Assay type in all cases: in vivo, mouse
[1] = test system: CD-1 male mice; test: Acoustic response test; conditions: AM 251 6 mg/kg i.p. before MAM-2201 6 mg/kg
Procedure: For the overall study 234 mice were used. In sensorimotor (visual object, visual placing, acoustic, and overall tactile responses) tests for MAM-2201, experiments for each treatment dose (vehicle or 5 different MAM-2201 doses, 0.01, 0.1, 1, 3, and 6 mg/kg) used 8 mice (total mice used: 48) and for MAM-2201 with AM-251 pretreatment, experiments for each dose regimen (vehicle + AM-251 or MAM-2201 + AM-251, 6 mg/kg) used 16 mice. In the analysis of spontaneous locomotion (open field test) for MAM-2201, experiments for each treatment regimen (vehicle or 4 different MAM-2201 doses, 0.01, 0.1, 1, and 6 mg/kg) used 10 mice (total mice used: 50). In the PPI test for MAM-2201, experiments for each treatment (vehicle or 3 different MAM-2201 doses, 0.01, 0.1, and 1 mg/kg) used 10 mice (total mice used: 40), while for MAM-2201 experiments in the Novel Object Recognition (NOR) test for each treatment regimen (vehicle or 3 different MAM-2201 and vehicle or 3 different AM-2201 doses, 0.01, 0.1, and 1 mg/kg) used 10 mice (total mice used: 80). In the present study the effect of MAM-2201 on sensorimotor responses was investigated using a battery of behavioral tests widely used in studies of “safety-pharmacology,” that we routinely adopted in our laboratory, for the preclinical characterization of new molecules in rodents (Ossato et al. [2015]; Vigolo et al. [2015]; Bilel et al. [2020]). The voluntary and involuntary motor responses of the animal to different visual, acoustic, and tactile stimuli were evaluated according to the procedure described in our previous studies (Ossato et al. [2015]; Bilel et al. [2020]). To reduce the number of animals used, mice were evaluated in functional observational tests carried out in a consecutive manner according to the following time scheme: observation of visual object responses (frontal and lateral view), acoustic response, tactile response (vibrissae, corneal and pinnae reflexes), and visual placing response. Sensorimotor tests were measured at 10, 30, 60, 120, 180, 240, and 300 min after injections for the evaluation of the visual object, acoustic and the tactile response, and at 15, 45, 75, 135, 195, 255, and 315 min after injections for the evaluation of visual placing response. Behavioral tests were conducted in a thermostated (temperature: 20–22 °C, humidity: 45–55%) and light (150 lx) controlled room with a background noise of 40 ± 4 dB. The apparatus for the visual object, acoustic and tactile sensorimotor tests consisted of an experimental chamber (350 × 350 × 350 mm) with black methacrylate walls and a transparent front door. During the week before the experiment, each mouse was placed in the box and handled (once a day) on every other day, i.e., 3 times, to get used to both the environment and the experimenter. To avoid olfactory cues, cages were carefully cleaned with a dilute (5%) ethanol solution and rinsed with water. All experiments were performed between 8:30 AM and 2:00 PM and conducted by trained observers working in pairs who were blinded to the treatment being tested (Ossato et al. [2015]). The behavior of mice was videotaped by a camera (B/W USB Camera day & night with varifocal lens; Ugo Basile, Italy) placed at the top or on one side of the box and analyzed off-line by a different trained operator. […] Sensory gating was evaluated by analysis of the pre-pulse inhibition (PPI) of the acoustic startle reflex as previously described (Bilel et al. [2020]). […]

[2] = test system: CD-1 male mice; test: Visual object response test; conditions: AM 251 6 mg/kg i.p. 20 min before MAM-2201 6 mg/kg
Procedure: For the overall study 234 mice were used. In sensorimotor (visual object, visual placing, acoustic, and overall tactile responses) tests for MAM-2201, experiments for each treatment dose (vehicle or 5 different MAM-2201 doses, 0.01, 0.1, 1, 3, and 6 mg/kg) used 8 mice (total mice used: 48) and for MAM-2201 with AM-251 pretreatment, experiments for each dose regimen (vehicle + AM-251 or MAM-2201 + AM-251, 6 mg/kg) used 16 mice. In the analysis of spontaneous locomotion (open field test) for MAM-2201, experiments for each treatment regimen (vehicle or 4 different MAM-2201 doses, 0.01, 0.1, 1, and 6 mg/kg) used 10 mice (total mice used: 50). In the PPI test for MAM-2201, experiments for each treatment (vehicle or 3 different MAM-2201 doses, 0.01, 0.1, and 1 mg/kg) used 10 mice (total mice used: 40), while for MAM-2201 experiments in the Novel Object Recognition (NOR) test for each treatment regimen (vehicle or 3 different MAM-2201 and vehicle or 3 different AM-2201 doses, 0.01, 0.1, and 1 mg/kg) used 10 mice (total mice used: 80). In the present study the effect of MAM-2201 on sensorimotor responses was investigated using a battery of behavioral tests widely used in studies of “safety-pharmacology,” that we routinely adopted in our laboratory, for the preclinical characterization of new molecules in rodents (Ossato et al. [2015]; Vigolo et al. [2015]; Bilel et al. [2020]). The voluntary and involuntary motor responses of the animal to different visual, acoustic, and tactile stimuli were evaluated according to the procedure described in our previous studies (Ossato et al. [2015]; Bilel et al. [2020]). To reduce the number of animals used, mice were evaluated in functional observational tests carried out in a consecutive manner according to the following time scheme: observation of visual object responses (frontal and lateral view), acoustic response, tactile response (vibrissae, corneal and pinnae reflexes), and visual placing response. Sensorimotor tests were measured at 10, 30, 60, 120, 180, 240, and 300 min after injections for the evaluation of the visual object, acoustic and the tactile response, and at 15, 45, 75, 135, 195, 255, and 315 min after injections for the evaluation of visual placing response. Behavioral tests were conducted in a thermostated (temperature: 20–22 °C, humidity: 45–55%) and light (150 lx) controlled room with a background noise of 40 ± 4 dB. The apparatus for the visual object, acoustic and tactile sensorimotor tests consisted of an experimental chamber (350 × 350 × 350 mm) with black methacrylate walls and a transparent front door. During the week before the experiment, each mouse was placed in the box and handled (once a day) on every other day, i.e., 3 times, to get used to both the environment and the experimenter. To avoid olfactory cues, cages were carefully cleaned with a dilute (5%) ethanol solution and rinsed with water. All experiments were performed between 8:30 AM and 2:00 PM and conducted by trained observers working in pairs who were blinded to the treatment being tested (Ossato et al. [2015]). The behavior of mice was videotaped by a camera (B/W USB Camera day & night with varifocal lens; Ugo Basile, Italy) placed at the top or on one side of the box and analyzed off-line by a different trained operator. Spontaneous locomotion studies were conducted in a separate set of animals through ANYMAZE test. Sensory gating was evaluated by analysis of the pre-pulse inhibition (PPI) of the acoustic startle reflex as previously described (Bilel et al. [2020]).
Visual object response test was used to evaluate the ability of the mouse to see an object approaching from the front (frontal view) or the side (lateral view) that typically induces the animal to shift or turn the head, bring the forelimbs in the position of “defense” or retreat from it. For the frontal visual response, a white horizontal bar was moved frontally to the mouse head and the maneuver was repeated 3 times. […]

[3] = test system: CD-1 male mice; test: Overall tactile response (vibrissae, corneal, pinnae reflexes); conditions: AM 251 6 mg/kg i.p. before MAM-2201 6 mg/kg
Procedure: For the overall study 234 mice were used. In sensorimotor (visual object, visual placing, acoustic, and overall tactile responses) tests for MAM-2201, experiments for each treatment dose (vehicle or 5 different MAM-2201 doses, 0.01, 0.1, 1, 3, and 6 mg/kg) used 8 mice (total mice used: 48) and for MAM-2201 with AM-251 pretreatment, experiments for each dose regimen (vehicle + AM-251 or MAM-2201 + AM-251, 6 mg/kg) used 16 mice. In the analysis of spontaneous locomotion (open field test) for MAM-2201, experiments for each treatment regimen (vehicle or 4 different MAM-2201 doses, 0.01, 0.1, 1, and 6 mg/kg) used 10 mice (total mice used: 50). In the PPI test for MAM-2201, experiments for each treatment (vehicle or 3 different MAM-2201 doses, 0.01, 0.1, and 1 mg/kg) used 10 mice (total mice used: 40), while for MAM-2201 experiments in the Novel Object Recognition (NOR) test for each treatment regimen (vehicle or 3 different MAM-2201 and vehicle or 3 different AM-2201 doses, 0.01, 0.1, and 1 mg/kg) used 10 mice (total mice used: 80). In the present study the effect of MAM-2201 on sensorimotor responses was investigated using a battery of behavioral tests widely used in studies of “safety-pharmacology,” that we routinely adopted in our laboratory, for the preclinical characterization of new molecules in rodents (Ossato et al. [2015]; Vigolo et al. [2015]; Bilel et al. [2020]). The voluntary and involuntary motor responses of the animal to different visual, acoustic, and tactile stimuli were evaluated according to the procedure described in our previous studies (Ossato et al. [2015]; Bilel et al. [2020]). To reduce the number of animals used, mice were evaluated in functional observational tests carried out in a consecutive manner according to the following time scheme: observation of visual object responses (frontal and lateral view), acoustic response, tactile response (vibrissae, corneal and pinnae reflexes), and visual placing response. Sensorimotor tests were measured at 10, 30, 60, 120, 180, 240, and 300 min after injections for the evaluation of the visual object, acoustic and the tactile response, and at 15, 45, 75, 135, 195, 255, and 315 min after injections for the evaluation of visual placing response. Behavioral tests were conducted in a thermostated (temperature: 20–22 °C, humidity: 45–55%) and light (150 lx) controlled room with a background noise of 40 ± 4 dB. […] The behavior of mice was videotaped by a camera (B/W USB Camera day & night with varifocal lens; Ugo Basile, Italy) placed at the top or on one side of the box and analyzed off-line by a different trained operator. […] Sensory gating was evaluated by analysis of the pre-pulse inhibition (PPI) of the acoustic startle reflex as previously described (Bilel et al. [2020]). […]

[4] = test system: CD-1 male mice; test: Visual placing response test; conditions: AM 251 6 mg/kg i.p. before MAM-2201 6 mg/kg
Procedure: For the overall study 234 mice were used. In sensorimotor (visual object, visual placing, acoustic, and overall tactile responses) tests for MAM-2201, experiments for each treatment dose (vehicle or 5 different MAM-2201 doses, 0.01, 0.1, 1, 3, and 6 mg/kg) used 8 mice (total mice used: 48) and for MAM-2201 with AM-251 pretreatment, experiments for each dose regimen (vehicle + AM-251 or MAM-2201 + AM-251, 6 mg/kg) used 16 mice. In the analysis of spontaneous locomotion (open field test) for MAM-2201, experiments for each treatment regimen (vehicle or 4 different MAM-2201 doses, 0.01, 0.1, 1, and 6 mg/kg) used 10 mice (total mice used: 50). In the PPI test for MAM-2201, experiments for each treatment (vehicle or 3 different MAM-2201 doses, 0.01, 0.1, and 1 mg/kg) used 10 mice (total mice used: 40), while for MAM-2201 experiments in the Novel Object Recognition (NOR) test for each treatment regimen (vehicle or 3 different MAM-2201 and vehicle or 3 different AM-2201 doses, 0.01, 0.1, and 1 mg/kg) used 10 mice (total mice used: 80). […] The voluntary and involuntary motor responses of the animal to different visual, acoustic, and tactile stimuli were evaluated according to the procedure described in our previous studies (Ossato et al. [2015]; Bilel et al. [2020]). To reduce the number of animals used, mice were evaluated in functional observational tests carried out in a consecutive manner according to the following time scheme: observation of visual object responses (frontal and lateral view), acoustic response, tactile response (vibrissae, corneal and pinnae reflexes), and visual placing response. Sensorimotor tests were measured at 10, 30, 60, 120, 180, 240, and 300 min after injections for the evaluation of the visual object, acoustic and the tactile response, and at 15, 45, 75, 135, 195, 255, and 315 min after injections for the evaluation of visual placing response. […] Sensory gating was evaluated by analysis of the pre-pulse inhibition (PPI) of the acoustic startle reflex as previously described (Bilel et al. [2020]). […]

Cc1c(C(=O)NN2CCCCC2)nn(-c2ccc(Cl)cc2Cl)c1-c1ccc(I)cc1 [AM 251, 1-(2,4-Dichlorophenyl)-5-(4-iodophenyl)-4-methyl-N-(piperidin-1-yl)-1H-pyrazole-3-carboxamide, reference compound]
effect of pre-treatment on MAM-2201-induced inhibition of acoustic response [1]: prevented | effect of pre-treatment on MAM-2201-induced inhibition of visual object response [2]: significantly prevented | effect of pre-treatment on MAM-2201-induced inhibition of overall tactile response [3]: prevented | effect of pre-treatment on MAM-2201-induced inhibition of visual placing response [4]: prevented
